The test system of data set [1] is Trypanosoma cruzi parasites. Put plainly: Trypanosoma cruzi in vitro IC50 (structure-activity analyses). In kind it is cell-based. To be noted: infection with Trypanosoma cruzi parasites for 72 hours and treatment with the compound for 72 hours. The method, then: Select compounds described herein were evaluated for structure-activity analyses in vitro.
Data set [2] in a line: Cytotoxicity (Table 1). In kind it is cell-based.
Data set [3] has as its system synchronized parasite cultures (Dd2). Description: Stage specific parasite inhibition (Giemsa smears, flow cytometry). In kind it is cell-based, P. falciparum. To be noted: for parasite stage development, Giemsa staining: 3×IC50, synchronized Dd2 cultures treated at ring, trophozoite or schizont stages, smears every 12 hours; for parasite stage progression, flow cytometry: 3×IC50, synchronized Dd2 cultures, YoYo-I DNA staining. The procedure: Select compounds described herein were evaluated for stage specific inhibition of parasite development. Tightly synchronized parasite cultures (Dd2) were treated with 3×IC50 concentrations of compound Tan003-M03 (“M03”), compound ent-Tan003-D20 (“D20-ent”), compound Tan003-O08 (“008”) or compound Tan002-O12 (“012”) at early ring, late ring, trophozoite, and schizont stages. Every 12 hours, Giemsa smears were made for treated cultures and samples were also collected and fixed for flow cytometry. […] Prior to flow analysis, fixed samples were permeabilized, RNase treated, and stained with YoYo-I as described in Bouillon et al., 2013. […] As the parasite matures, the DNA content increases and peaks start to spread to the right because of schizogony. Following reinvasion parasitemia increases in the next growth cycle, which is represented by an increase in peak height.
On the technique in general: In flow cytometry, cells or beads pass a laser one at a time.

The test system of data set [4] is Asynchronous cultures. Put plainly: Parasitocidal or parasitostatic determination (rate of killing). In kind it is cell-based. To be noted: for parasitocidal activity (rate of killing): 3×IC50, asynchronous cultures treated for 12, 24, 48, or 72 hours, washed, monitored for continued growth. The method, then: Asynchronous cultures were grown and treated with compounds, vehicle control or Dihydroartemisinin at 3×IC50 to determine their respective rate of killing curves. Cultures were treated for 12, 24, 48, or 72 hours with compound, washed several times to remove any inhibitor, and monitored for continued growth for several days. […] Overall, the exemplary compounds including, but not limited to, Tan003-M03 and ent-Tan003-D20 are parasitocidal agents blocking parasite maturation at the segmenter stage preventing egress, a novel mechanism of action absent among current antimalarials.

Data set [5] is described as follows: Plasma pharmacokinetics and liver distribution study in female BALB/c mice. Format: in vivo, mouse. To be noted: 100 mg/kg, female BALB/c mice; for Tmax: mouse, plasma, read-out: Tmax (plasma). The procedure:
A plasma pharmacokinetics and liver distribution study of selected compounds, including Pyrrolopyridine-008 (2015-foleyc-216), Pyrrolopyridine-D20-ent (2015-foleyc-217), and Pyrrolopyridine-M03 (2015-foleyc-218), in female BALB/c mice was conducted following a single intraperitoneal and oral administration. […] The blood samples were collected from a set of […] mice at each time point in labeled micro centrifuge tube containing K2EDTA as anticoagulant. Plasma samples were separated by centrifugation at 4000 rpm for 10 min and stored below −70° C. until bioanalysis. After collection of blood sample, animals were humanely euthanized by carbon dioxide asphyxiation to collect liver from Group 1 and Group 2 at all the time points. The collected tissues were rinsed in PBS and were homogenized with nine times of liver weight in ice cold phosphate buffer saline (pH 7.4) and stored below −70° C. until bio-analysis. Total homogenate volume was ten times the tissue weight. All samples were processed for analysis by protein precipitation using acetonitrile and analyzed with fit-for-purpose LC-MS/MS method (LLOQ: 2.01 ng/mL for plasma and 50.30 ng/g for liver). Pharmacokinetic parameters were calculated using the non-compartmental analysis tool of Phoenix WinNonlin® (Version 6.3).

Data set [6] concerns HepG2 human hepatoma cells. Description: HepG2 cytotoxicity, MTS cell proliferation assay. Format: cell-based. To be noted: 48 h, n=1. The procedure:
(§1) Select compounds described herein were evaluated for structure-activity analyses for anti-plasmodial activity in vitro. For Dd2 EC50 (M), calculations were for n=3. For HepG2 EC50 (M), calculations were for n=1. For the human microsomal stability determination, t was 60 minutes.
Selected compounds were evaluated for cytotoxicity using HepG2 human hepatoma cells. A 384-well clear bottom plate was seeded with 2,500 cells/well and incubated for 24 h. Serial dilutions of the compound (were added to the plate and plates were incubated for an additional 48 h. Viability of cells were assessed by MTS [(3-(4,5-dimethylthiazol-2-yl)-5-(3-carboxymethoxyphenyl)-2-(4-sulfophenyl)-2H-tetrazolium) cell proliferation assay (CellTiter 96® Aqueous non-radioactive cell proliferation assay, Promega) (See Cory et al., Cancer Communications, 3, 1991, p. 207-212).
(Formazan colour is commonly taken as a measure of viable cells.)

Data set [7] concerns P. falciparum Dd2. Put plainly: Anti-plasmodial growth inhibition, SYBR green I-based DNA quantification. To be noted: Plasmodium falciparum, 72 h incubation, n=3. Format: cell-based. The procedure: as §1
Different dilutions of the compound in RPMI 1640 (Life Technologies) from a stock of 10 mM in dimethyl sulfoxide (DMSO) were added to the culture at a 1% parasitemia and 2% hematocrit in 96-well black plates (Santa Cruz Biotechnology). Maximum DMSO concentration in the culture never exceeded 0.25%. Chloroquine at 1 μM was used as a positive control to determine the baseline value. Following 72 h incubation at 37° C., the ability of the compounds to inhibit growth of the parasite was determined by a SYBR green I-based DNA quantification assay (See Bennett et al., 2004, Chemother. 48, 1807-1810; see also Johnson et al., 2007, Antimicrob. Agents. Chemother. 51, 1926-1933; Smilkstein et al., 2004, Antimicrob. Agents. Chemother. 48, 1803-1806). EC50 was calculated (n=3) from a dose response curve that was generated from a concentration range of 0-20 μM using GraphPad Prism v5.0.

Data set [8] is described as follows: Human microsomal stability. Format: in vitro ADME. To be noted: t was 60 minutes. The method, then:
as §1
To determine microsomal stability for selected compounds, a reaction plate was prepared by adding 691.25 μL, pre-warmed (37° C.) microsomal solution (0.63 mg/mL protein in 100 mM KPO4 with 1.3 mM EDTA) to an empty well of a 96 well plate and maintained at 37° C. The diluted 0.1 mM compound (8.75 μL) is added to the microsomal solution in the reaction plate and mixed thoroughly by repeated pipetting. The resulting solutions were pre-incubated for 5 minutes at 37° C. before preparing the T=0 plates. For the T=0 plates, an aliquot (160 μL) of each reaction solution was added to an empty well of a 96 well plate, as an exact replicate of the Reaction Plate. Cold (4° C.) MeOH (400 μL) is added to each well and mixed thoroughly by repeated pipetting. NADPH Regeneration solution (40 μL) is added to each well and mixed thoroughly by repeated pipetting. For the T=60 minute Incubation Plates (without NADPH), an aliquot (160 μL) of each reaction solution was added to an empty well of a 96 well plate, as an exact replicate of the Reaction Plate. LC-MS grade H2O (40 μL) is added to each well and mixed thoroughly by repeated pipetting. The plate was sealed and incubated at 37° C. for the incubation period. After incubation, cold (4° C.) MeOH (400 μL) is added to each well and mixed thoroughly by repeated pipetting. For the T=60 minute Incubation Plates, NADPH (95 μL) was added to the remaining solution (microsomes+test compound) in each well in the previously-prepared reaction plate to initiate the reaction. The plate was sealed and incubated at 37° C. for the incubation period. An aliquot (100 μL) was removed from each well at the desired time point and dispensed into a well of a 96-well plate. 200 μL of cold (4° C.) MeOH was […] the reaction.

Data set [9] is described as follows: Kinetic solubility assay. In kind it is physicochemical. To be noted: 1×PBS pH 7.4 buffer, 24 °C, pH 7.4, aqueous buffer, kinetic from dmso stock, 1×PBS pH7.4, 2.0% DMSO, ambient temperature, read-out: Solubility LogS, at pH 7.4 (converted).

From patent US12071436B2, “Anti-parasitic compounds and uses thereof” (Memorial Sloan-Kettering Cancer Center, priority 2016, dated 2024) come the findings set out here.

Values after ≈ are worked out from the molar mass of the structure shown. “Also recorded” adds a separate entry of the source. Where two headings read alike, the source gives them in different places. A value given as a limit tells only on which side of the number the result lay.

The compound `CC(C)(C)[S@@+]([O-])N1Cc2cc(C(=O)N[C@@H]3CCN(Cc4ccccc4)C3)nc(-c3cccc(Br)c3)c2[C@H]1CCO` [Compound 86, (R)-N-((R)-1-Benzylpyrrolidin-3-yl)-4-(3-bromophenyl)-2-((R)-tert-butylsulfinyl)-3-(2-hydroxyethyl)-2,3-dihydro-1H-pyrrolo[3,4-c]pyridine-6-carboxamide] displayed an IC50 in [1] of 2850 nM. For the same compound, the Cytotoxicity in data set [2] was >10 µM.
For `CN(C)CC#Cc1cccc(-c2nc(C(=O)N[C@H]3CCN(Cc4ccccc4)C3)cc3c2[C@@H](CCO)N([S@+]([O-])C(C)(C)C)C3)c1` [Compound 89, (R)-N-((S)-1-benzylpyrrolidin-3-yl)-2-((R)-tert-butylsulfinyl)-4-(3-(3-(dimethylamino)prop-1-yn-1-yl)phenyl)-3-(2-hydroxyethyl)-2,3-dihydro-1H-pyrrolo[3,4-c]pyridine-6-carboxamide], in [1], the IC50 was 28 nM. Further, the Cytotoxicity in [2] was >10 µM.
For the compound `CCOC(=O)c1cc2c(c(-c3cccc(C#CCN(C)C)c3)n1)[C@@H](CCO)N([S@+]([O-])C(C)(C)C)C2` [Compound 90, Ethyl (R)-2-((R)-tert-butylsulfinyl)-4-(3-(3-(dimethylamino)prop-1-yn-1-yl)phenyl)-3-(2-hydroxyethyl)-2,3-dihydro-1H-pyrrolo[3,4-c]pyridine-6-carboxylate], in data set [1], the IC50 amounted to 8500 nM. In [2], the Cytotoxicity is >10 µM.
With `CCOC(=O)c1cc2c(c(-c3ccccc3)n1)[C@@H](CCO)N([S@+]([O-])C(C)(C)C)C2` [Tan002-O12, Ethyl (R)-2-((R)-tert-butylsulfinyl)-3-(2-hydroxyethyl)-4-phenyl-2,3-dihydro-1H-pyrrolo[3,4-c]pyridine-6-carboxylate], in data set [3], the “parasite stage development, Giemsa staining” value (from here on “parasite stage development”) was “inhibit parasite development before egress”. Further, the “parasite stage progression, flow cytometry” value (“parasite stage progression” for short) in data set [3] was “block parasite stage progression prior to egress”. The “parasitocidal activity (rate of killing)” value in [4] was “not seen; also recorded: did not show any parasitocidal activity”. Also, the Tmax in data set [5] (ip, single intraperitoneal dose) worked out at 60 min; in data set [5] (single oral dose), 30 min. The “plasma concentrations quantifiable till” value in data set [5] (single intraperitoneal dose) and in data set [5] (single oral dose) was 12 h in each case. Moreover, the EC50 in [6] is > 100000 nM; in [7] it was 890 ± 130 nM.
Turning to `CC(C)(C)[S@@+]([O-])N1Cc2cc(C(=O)NCc3ccc4c(c3)OCO4)nc(-c3cccc(-c4cccnc4)c3)c2[C@H]1CCO` [Tan003-O08, (R)-N-(benzo[d][1,3]dioxol-5-ylmethyl)-2-((R)-tert-butylsulfinyl)-3-(2-hydroxyethyl)-4-(3-(pyridin-3-yl)phenyl)-2,3-dihydro-1H-pyrrolo[3,4-c]pyridine-6-carboxamide], in data set [3], the “parasite stage development” value is “inhibit parasite development before egress” and the “parasite stage progression” value is on record as “block parasite stage progression prior to egress”. Besides, the “viable parasites in asynchronous culture” value in data set [4] (treatment for 72 hours) was “significantly decreases viable parasites”.
With `CC(C)(C)[S@@+]([O-])N1Cc2cc(C(=O)NCc3ccccc3F)nc(-c3cccc(-c4cccnc4)c3)c2[C@H]1CCO` [ent-Tan003-D20, (R)-2-((R)-tert-butylsulfinyl)-N-(2-fluorobenzyl)-3-(2-hydroxyethyl)-4-(3-(pyridin-3-yl)phenyl)-2,3-dihydro-1H-pyrrolo[3,4-c]pyridine-6-carboxamide], in data set [3], the “parasite stage development” value was “inhibit parasite development before egress” and the “parasite stage progression” value is reported as “block parasite stage progression prior to egress”. The “parasitocidal activity (rate of killing)” value in data set [4] was “parasitocidal and prohibit progression beyond segmenter stages; also recorded: parasitocidal and prevent any parasite development beyond the schizont stage when treated for at least 48 hours”. This compound registered an EC50 in data set [6] of 60000 nM. The compound further gave an EC50 in data set [7] of 380 ± 90 nM.
For `CC(C)NC(=O)N1Cc2cc(C(=O)NCC(F)(F)F)nc(-c3cccc(-c4cc5ccccc5o4)c3)c2[C@@H]1CCO` [ent-Tan003-M03], the “Human microsomal stability (%)” value in data set [8] amounted to 62.7%. In data set [7], this compound returned an EC50 of 200 ± 20 nM. For the same compound, the solubility at 24 h in data set [9] was 6.31 µM (≈ 3.57 µg/mL).

As usually defined, the IC50 is the concentration at which inhibition is half-maximal. What is called Tmax is the time from dosing to the highest level. One may read the EC50 as the midpoint of the concentration-response curve. In general, solubility refers to how much of the substance goes into solution per volume.
